Laboratory results from PubChem BioAssay (NCI).
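Where inhibition never reached the appropriate level, the endpoint shown equals the highest concentration tested. Otherwise, values were interpolated linearly from a five-concentration, 48-hour dose response in 96-well plates. At the TGI there is no net growth.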

Key:
Test in all cases: inhibition of tumour cell growth, NCI panel, 48 h
786-0 renal = test system: 786-0 renal
A498 renal = test system: A498 renal
A549 NSCLC = test system: A549 NSCLC
ACHN renal = test system: ACHN renal
CCRF-CEM leukemia = test system: CCRF-CEM leukemia
COLO 205 colon = test system: COLO 205 colon
DMS 114 small cell lung = test system: DMS 114 small cell lung
DMS 273 small cell lung = test system: DMS 273 small cell lung
EKVX NSCLC = test system: EKVX NSCLC
HCC-2998 colon = test system: HCC-2998 colon
HCT-116 colon = test system: HCT-116 colon
HCT-15 colon = test system: HCT-15 colon
HL-60(TB) leukemia = test system: HL-60(TB) leukemia
HOP-62 NSCLC = test system: HOP-62 NSCLC
HOP-92 NSCLC = test system: HOP-92 NSCLC
HT29 colon = test system: HT29 colon
IGROV1 ovarian = test system: IGROV1 ovarian
K-562 leukemia = test system: K-562 leukemia
KM12 colon = test system: KM12 colon
KM20L2 colon = test system: KM20L2 colon
LOX IMVI melanoma = test system: LOX IMVI melanoma
LXFL 529 NSCLC = test system: LXFL 529 NSCLC
M14 melanoma = test system: M14 melanoma
M19-MEL melanoma = test system: M19-MEL melanoma
MALME-3M melanoma = test system: MALME-3M melanoma
MOLT-4 leukemia = test system: MOLT-4 leukemia
NCI-H226 lung = test system: NCI-H226 lung
NCI-H23 lung = test system: NCI-H23 lung
NCI-H460 lung = test system: NCI-H460 lung
NCI-H522 lung = test system: NCI-H522 lung
OVCAR-3 ovarian = test system: OVCAR-3 ovarian
OVCAR-4 ovarian = test system: OVCAR-4 ovarian
OVCAR-5 ovarian = test system: OVCAR-5 ovarian
OVCAR-8 ovarian = test system: OVCAR-8 ovarian
RPMI-8226 leukemia = test system: RPMI-8226 leukemia
SF-268 CNS = test system: SF-268 CNS
SF-295 CNS = test system: SF-295 CNS
SF-539 CNS = test system: SF-539 CNS
SK-MEL-2 melanoma = test system: SK-MEL-2 melanoma
SK-MEL-28 melanoma = test system: SK-MEL-28 melanoma
SK-MEL-5 melanoma = test system: SK-MEL-5 melanoma
SK-OV-3 ovarian = test system: SK-OV-3 ovarian
SN12C renal = test system: SN12C renal
SNB-19 CNS = test system: SNB-19 CNS
SNB-78 CNS = test system: SNB-78 CNS
SR leukemia = test system: SR leukemia
SW-620 colon = test system: SW-620 colon
TK-10 renal = test system: TK-10 renal
UACC-257 melanoma = test system: UACC-257 melanoma
UACC-62 melanoma = test system: UACC-62 melanoma
UO-31 renal = test system: UO-31 renal
XF 498 CNS = test system: XF 498 CNS
CAKI-1 renal = test system: CAKI-1 renal
DLD-1 colon = test system: DLD-1 colon
RXF 393 renal = test system: RXF 393 renal
SNB-75 CNS = test system: SNB-75 CNS
U251 CNS = test system: U251 CNS

Measured: TGI

CC(=O)NNc1nc(C)c(C(=O)NNC(=O)C(=O)Nc2c(C)cccc2C(C)C)s1
> 100 µM: 786-0 renal | A498 renal | A549 NSCLC | ACHN renal | CCRF-CEM leukemia | COLO 205 colon | DMS 114 small cell lung | DMS 273 small cell lung | EKVX NSCLC | HCC-2998 colon | HCT-116 colon | HCT-15 colon | HL-60(TB) leukemia | HOP-62 NSCLC | HOP-92 NSCLC | HT29 colon | IGROV1 ovarian | K-562 leukemia | KM12 colon | KM20L2 colon | LOX IMVI melanoma | LXFL 529 NSCLC | M14 melanoma | M19-MEL melanoma | MALME-3M melanoma | MOLT-4 leukemia | NCI-H226 lung | NCI-H23 lung | NCI-H460 lung | NCI-H522 lung | OVCAR-3 ovarian | OVCAR-4 ovarian | OVCAR-5 ovarian | OVCAR-8 ovarian | RPMI-8226 leukemia | SF-268 CNS | SF-295 CNS | SF-539 CNS | SK-MEL-2 melanoma | SK-MEL-28 melanoma | SK-MEL-5 melanoma | SK-OV-3 ovarian | SN12C renal | SNB-19 CNS | SNB-78 CNS | SR leukemia | SW-620 colon | TK-10 renal | UACC-257 melanoma | UACC-62 melanoma | UO-31 renal | XF 498 CNS

CCCCN(CCCC)CC(C(=O)Nc1ccccc1)/C(C)=N\NC(=O)c1ccncc1 (centres undefined)
> 100 µM: 786-0 renal | A549 NSCLC | ACHN renal | CAKI-1 renal | COLO 205 colon | DLD-1 colon | DMS 114 small cell lung | DMS 273 small cell lung | HCC-2998 colon | HCT-116 colon | HCT-15 colon | HL-60(TB) leukemia | HOP-62 NSCLC | HOP-92 NSCLC | HT29 colon | IGROV1 ovarian | K-562 leukemia | KM12 colon | KM20L2 colon | LOX IMVI melanoma | M14 melanoma | M19-MEL melanoma | MALME-3M melanoma | MOLT-4 leukemia | NCI-H226 lung | NCI-H23 lung | NCI-H460 lung | NCI-H522 lung | OVCAR-3 ovarian | OVCAR-4 ovarian | OVCAR-5 ovarian | OVCAR-8 ovarian | RPMI-8226 leukemia | RXF 393 renal | SF-268 CNS | SF-295 CNS | SF-539 CNS | SK-MEL-28 melanoma | SK-MEL-5 melanoma | SK-OV-3 ovarian | SN12C renal | SNB-19 CNS | SNB-75 CNS | SNB-78 CNS | SR leukemia | SW-620 colon | TK-10 renal | U251 CNS | UACC-257 melanoma | UACC-62 melanoma | UO-31 renal | XF 498 CNS
